The test system of assay [1] is HIV-1 NL4.3. Briefly: PM1 cell-based HIV co-culture assay (HeLa CD4 LTR/lacZ indicator cells, β-Gal reporter). To be noted: for EC50: read-out: PM-1 Co-Culture Assay EC50; for EC90: read-out: PM-1 Co-Culture Assay EC90.
Text: (§1) The modifications were as follows: PM1 cells were used in place of the MT-2 cells.
as §1

For assay [2], the system named is HIV-1 NL4.3. As to the kind of experiment: MT-2 cell-based HIV co-culture assay (HeLa CD4 LTR/lacZ indicator cells, β-Gal reporter). The following applies: for EC50: read-out: MT-2 Co-Culture Assay EC50; for EC90: read-out: MT-2 Co-Culture Assay EC90. How it is done:
HeLa CD4 LTR/lacZ indicator cells were added to 96-well microtiter plates at cell densities of 1×10^4 cells/well in DMEM or RPMI medium (Life Technologies) containing 10% FBS (HyClone). MT-2 cells were infected with HIV-1 NL4.3 using 656, 1312, 2624, or 5248 TCID50s per 1.6×10^4 cells. Two hours after infection, infected MT-2 cells were washed with RPMI medium (Life Technologies) and added to the 96-well microtiter plates containing the HeLa CD4 LTR/lacZ indicator cells. The final MT2-cell densities in the indicator wells were 1.6×10^4 cells/well.
Virus replication was measured 4 days after infection by quantifying HIV-1 Tat induced beta-galactosidase (β-Gal) activity in the HeLa CD4 LTR/lacZ indicator cells using the Dual-Light™ System according to the manufacturer's protocol (Applied Biosystems). Experiments were performed in replicates of 3 or more.
Half-log dilutions of test compounds were added to HeLa CD4 LTR/lacZ indicator cells seeded in 96-well plates at a cell density of 1×10^4 cells per well in DMEM or RPMI (Life Technologies) containing 10% FBS (HyClone). MT-2 cells were infected with HIV-1 NL4.3 virus at an MOI of 0.08. Two hours after infection, infected cells were washed with RPMI, resuspended in RPMI medium, and added to the 96-well plates containing compound-treated or compound free HeLa CD4 LTR/lacZ indicator cells. Virus replication was measured 3 or 4 days after infection by quantifying HIV-1 Tat induced β-Gal activity in the HeLa CD4 LTR/lacZ indicator cells using the Dual-Light™ System according to the manufacturer's protocol (Applied Biosystems).
Data was expressed as the percent of reporter gene activity in infected compound-treated cells relative to that of infected, compound-free cells.

The test system of another assay is HIV-1. To be noted: range of EC50 values reported in the literature, NIH anti-HIV therapeutics database, cited from earlier work.
Assay [3] concerns HIV-1 NL4.3. Briefly: Direct infection of HeLa CD4 LTR/lacZ indicator cells (known reporter cell assay). Type of assay: cell-based. The source says:
This Example compared the present HIV co-culture assay with a known reporter cell-based assay method. This known method involved direct infection of HeLa CD4 LTR/lacZ indicator cells with HIV-1 (Kimpton and Emerman, J. Virol., 66(4):2232-2239 (1992)).
HeLa CD4 LTR/lacZ indicator cells were directly infected with TCID50s identical to those used in the co-culture experiments described in Examples 1 and 2. HeLa CD4 LTR/lacZ indicator cells were infected directly with HIV-1 NL4.3 using 656, 1312, 2624, or 5248 TCID50s per 1×10^4 cells.

Where [4] appears, read: Human immunodeficiency virus 1, PM1, 96 h.
Where [5] appears, read: Human immunodeficiency virus 1, MT2, 96 h.
The mark [6] stands for this setting: Human immunodeficiency virus 1, PM1, 96 h, induced β-Gal activity 4 days after HIV-1 NL4.3 infection, PM-1 cells.
The mark [7] stands for this setting: Human immunodeficiency virus 1, MT2, 96 h, induced β-Gal activity 4 days after HIV-1 NL4.3 infection, MT-2 cells, MOI 0.08.
[8] abbreviates: read-out: Literature EC50 (Table 1).
Where [9] appears, read: read-out: Literature EC50 (Table 2).
Where [10] appears, read: Human immunodeficiency virus 1, 96 h, read-out: inhibition of the reporter signal.
[11] abbreviates: induced β-Gal activity 4 days after HIV-1 NL4.3 infection, PM-1 cells.
Setting [12] is: induced β-Gal activity 4 days after HIV-1 NL4.3 infection, MT-2 cells, MOI 0.08.

Where two headings read alike, the source gives them in different places. Some results are limits rather than exact numbers.

The EC50 is the concentration at which the effect is half-maximal. The term EC90 denotes the concentration at which the effect reaches the 90% level. Take `Nc1ccn([C@@H]2CS[C@H](CO)O2)c(=O)n1` [3TC, lamivudine]: in the assay on HIV-1 NL4.3 [1] (setting [4]), the EC50 turned out to be 180 nM and the concentration for an effect of 90% (EC90) worked out at 1700 nM. In the assay with HIV-1 NL4.3 [2] (setting [5]), the EC50 amounted to 420 nM and the EC90 was 5500 nM.

As for `CC(C)(C)C(=O)OCOP(=O)(COCCn1cnc2c(N)ncnc21)OCOC(=O)C(C)(C)C` [ADV, adefovir dipivoxil], the EC50 in the assay on HIV-1 NL4.3 [1] (setting [6]) is 25 nM; in the assay with HIV-1 NL4.3 [2] (setting [7]) it was 39 nM; in the assay on HIV-1 (setting [8]), 40 to 500 nM; with HIV-1 (setting [9]), 40 to 500 nM. In addition, the EC90 with HIV-1 NL4.3 [1] (setting [6]) came to 150 nM; in the assay with HIV-1 NL4.3 [2] (setting [7]), 220 nM.

In the case of `O=C(O)C1=CC(=C(c2ccc(O)c(C(=O)O)c2)c2ccc(O)c(C(=O)O)c2)C=CC1=O` [ATA, aurintricarboxylic acid], in the assay with HIV-1 NL4.3 [2] (setting [5]), the EC50 came to 3300 nM and the concentration for an effect of 90% (EC90) was 9900 nM.

For the compound `Cc1cn([C@H]2C[C@H](N=[N+]=[N-])[C@@H](CO)O2)c(=O)[nH]c1=O` [AZT, 3′-Azido-3′-deoxythymidine], the EC50 in the assay on HIV-1 NL4.3 [1] (setting [4]) is 30 nM; in the assay on HIV-1 NL4.3 [2] (setting [5]), 31 nM; in the assay on HIV-1 (setting [8]), 6 to 90 nM; with HIV-1 (setting [9]), 6 to 90 nM. The concentration for an effect of 90% (EC90) with HIV-1 NL4.3 [1] (setting [4]) worked out at 180 nM; in the assay with HIV-1 NL4.3 [2] (setting [5]) it was 280 nM.

For `CC(C)c1nc(COC(N)=O)n(Cc2ccncc2)c1Sc1cc(Cl)cc(Cl)c1` [CPV, Capravirine], in the assay with HIV-1 NL4.3 [2] (setting [5]), the EC50 amounted to 2.4 nM and the EC90 stood at 12 nM.

Turning to `CC(C)Nc1cccnc1N1CCN(C(=O)c2cc3cc(NS(C)(=O)=O)ccc3[nH]2)CC1` [DLV, delavirdine], the half-maximal effective concentration (EC50) in the assay on HIV-1 NL4.3 [1] (setting [4]) is 5.9 nM; in the assay on HIV-1 NL4.3 [2] (setting [5]), 34 nM; in the assay with HIV-1 (setting [8]), 0.1 to 10 nM; in the assay with HIV-1 (setting [9]) it was 0.1 to 10 nM. Also, the EC90 with HIV-1 NL4.3 [1] (setting [4]) came to 100 nM; in the assay on HIV-1 NL4.3 [2] (setting [5]) it was 110 nM.

The inhibition is the drop in the measured response relative to a control, in per cent. As to `O=C1Nc2ccc(Cl)cc2[C@@](C#CC2CC2)(C(F)(F)F)O1` [EFV, efavirenz], in the assay with HIV-1 NL4.3 [1] (setting [4]), the EC50 was found to be 0.19 nM and the concentration for an effect of 90% (EC90) came to 6.2 nM. Moreover, the inhibition at 0.1 µM in the assay on HIV-1 NL4.3 [2] (setting [10]) is above 99%. Further, in the assay with HIV-1 NL4.3 [2] (setting [5]), the EC50 is 1.4 nM and the EC90 came out at 4.3 nM. Besides, the “inhibition of the reporter signal” value in the assay with HIV-1 NL4.3 [3] (inhibitor at >10×EC90) is reported as above 99%.

Consider `CC(C)(C)NC(=O)[C@@H]1CN(Cc2cccnc2)CCN1C[C@@H](O)C[C@@H](Cc1ccccc1)C(=O)N[C@H]1c2ccccc2C[C@H]1O` [IDV, indinavir], for which the concentration for a half-maximal effect (EC50) with HIV-1 NL4.3 [1] (setting [4]) was 12 nM; in the assay with HIV-1 NL4.3 [2] (setting [5]), 26 nM; in the assay with HIV-1 (setting [8]) it was 1.1 to 60 nM; in the assay with HIV-1 (setting [9]), 1.1 to 60 nM. Further, the EC90 with HIV-1 NL4.3 [1] (setting [4]) was found to be 47 nM; in the assay on HIV-1 NL4.3 [2] (setting [5]), 55 nM.

Consider `O=C(NCc1ccc(F)cc1)c1nc(N2CCCCS2(=O)=O)c2cccnc2c1O` [L-870810], for which the EC50 in the assay with HIV-1 NL4.3 [1] (setting [11]) is 0.61 nM; in the assay on HIV-1 NL4.3 [2] (setting [12]) it was 1.4 nM; in the assay on HIV-1 (setting [8]), 4 to 8 nM; with HIV-1 (setting [9]) it was 4 to 8 nM. The EC90 was 2.4 nM in the assay on HIV-1 NL4.3 [1] (setting [11]) and 5.9 nM in the assay with HIV-1 NL4.3 [2] (setting [12]).

As for `Cc1c(O)cccc1C(=O)N[C@@H](CSc1ccccc1)[C@H](O)CN1C[C@H]2CCCC[C@H]2C[C@H]1C(=O)NC(C)(C)C` [NFV, nelfinavir], the EC50 was 10 nM in the assay on HIV-1 NL4.3 [1] (setting [4]), 18 nM in the assay on HIV-1 NL4.3 [2] (setting [5]), 10 to 43 nM in the assay on HIV-1 (setting [8]) and 10 to 43 nM in the assay on HIV-1 (setting [9]). Also, the EC90 in the assay on HIV-1 NL4.3 [1] (setting [4]) was determined as 58 nM; in the assay on HIV-1 NL4.3 [2] (setting [5]), 100 nM. In addition, the “inhibition of the reporter signal” value in the assay with HIV-1 NL4.3 [1] (PM1 co-culture, inhibitor at ≧10×EC90) turned out to be 99%; in the assay on HIV-1 NL4.3 [3] (inhibitor at 10×EC90), 42%. For the same compound, in the assay on HIV-1 NL4.3 [2] (setting [10]), the inhibition at 1 µM was around 98%.

As to `Cc1ccnc2c1NC(=O)c1cccnc1N2C1CC1` [NVP, Nevirapine], the EC90 in the assay on HIV-1 NL4.3 [1] (setting [4]) amounted to 260 nM; with HIV-1 NL4.3 [2] (setting [7]), 380 nM. Besides, the EC50 is 12 nM with HIV-1 NL4.3 [1] (setting [6]), 46 nM with HIV-1 NL4.3 [2] (setting [7]), 24 to 48 nM in the assay with HIV-1 (setting [8]) and 24 to 48 nM in the assay on HIV-1 (setting [9]).

Regarding `O=C(/C=C(\O)c1nc[nH]n1)c1ccc(Cc2ccc(F)cc2)o1` [S-1360], the figures for the concentration for a half-maximal effect (EC50) in the assay with HIV-1 NL4.3 [1] (setting [6]) and in the assay with HIV-1 NL4.3 [2] (setting [7]) were 91 nM and 88 nM, respectively. Besides, the EC90 with HIV-1 NL4.3 [1] (setting [6]) is 280 nM; in the assay on HIV-1 NL4.3 [2] (setting [7]) it was 1090 nM.

With `CC(C)(C)NC(=O)[C@@H]1C[C@@H]2CCCC[C@@H]2CN1C[C@@H](O)[C@H](Cc1ccccc1)NC(=O)[C@H](CC(N)=O)NC(=O)c1ccc2ccccc2n1` [SQV, saquinavir], the EC50 was 5.3 nM with HIV-1 NL4.3 [1] (setting [4]), 12 nM in the assay on HIV-1 NL4.3 [2] (setting [5]), 0.2 to 57 nM in the assay with HIV-1 (setting [8]) and 0.2 to 57 nM with HIV-1 (setting [9]). The EC90 with HIV-1 NL4.3 [1] (setting [4]) stood at 34 nM; in the assay on HIV-1 NL4.3 [2] (setting [5]), 26 nM.

`Cc1cn([C@H]2C=C[C@@H](CO)O2)c(=O)[nH]c1=O` [d4T, stavudine]: in the assay on HIV-1 NL4.3 [2] (setting [5]), the EC50 worked out at 210 nM and the EC90 came out at 3600 nM. The EC50 with HIV-1 (setting [8]) was 10 to 8000 nM.

Take `O=c1[nH]cnc2c1ncn2[C@H]1CC[C@@H](CO)O1` [ddl, didanosine]: in the assay on HIV-1 NL4.3 [2] (setting [5]), the EC50 was 1700 nM and the EC90 turned out to be 14000 nM. The EC50 in the assay on HIV-1 (setting [8]) was 460 to 10000 nM.

(Values after US20050014137A1, “Lentivirus assay system including Vif protein activity” (priority 2003, published 2005).)
